pKd: −log10 of the molar value.

Test [1] deals with T1, D-amino acid oxidase (DAO; EC-1.4.3.3) from Rhodotorula gracilis ATCC 26217 (Rhodotorula toruloides, UniProt P80324).
T1 construct: production of Rhodotorula gracilis cells of high DAO enzyme content; made in house; host or cells: Rhodotorula gracilis ATCC 26217 (natural producer, aerobic fermentation)
T1 sequence (P80324 25-368): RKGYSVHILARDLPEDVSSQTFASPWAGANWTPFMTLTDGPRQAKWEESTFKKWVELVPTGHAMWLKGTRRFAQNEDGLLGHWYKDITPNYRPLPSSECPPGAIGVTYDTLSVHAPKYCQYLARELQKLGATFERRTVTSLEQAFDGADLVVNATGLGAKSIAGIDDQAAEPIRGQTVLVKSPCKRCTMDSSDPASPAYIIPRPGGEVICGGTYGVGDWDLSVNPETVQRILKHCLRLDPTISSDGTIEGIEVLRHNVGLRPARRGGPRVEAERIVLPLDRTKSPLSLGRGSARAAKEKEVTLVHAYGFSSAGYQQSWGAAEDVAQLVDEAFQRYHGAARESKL
The test can be described thus: Substrate specificity (Km) of D-amino acid oxidase. It is filed as biochemical. To be noted: compared with D-alanine, the specific substrate for this enzyme. The method, then:
The activity of the D-amino acid oxidase enzyme is evaluated by measuring the H2 O2 quantity evolved on reacting the enzyme on a substrate of D-alanine in 100 mM phosphate buffer at pH 7.5 saturated with oxygen at 37° C.
The H2 O2 is determined kinetically using a peroxidase-based reactant, 4-aminophenazone and 2,4-dichlorophenolsulphonate by the modified Trinder reaction (J. Clin. Path. 22, 246, 1969). The red colour which forms (quinonimine) is proportional to the hydrogen peroxide evolved in the test and is measured spectrophotometrically at 510 nm.
One unit of D-amino acid oxidase is that quantity of enzyme (free or immobilized) which under the conditions used in the method produces one μmole of H2 O2 per minute.

Test [2] addresses T1, D-amino acid oxidase (DAO; EC-1.4.3.3) from Rhodotorula gracilis ATCC 26217. The test can be described thus: Dissociation constant of the FAD cofactor from D-amino acid oxidase. It counts as binding. As to conditions: read-out: dissociation constant (bond with the FAD).

Turning to `CC(=O)OCC1=C(C(=O)O)N2C(=O)[C@@H](NC(=O)CCC[C@@H](N)C(=O)O)[C@H]2SC1` [Cephalosporin C], in test [1], the Km entry is “very similar to those encountered for D-alanine”.
For the compound `Cc1cc2nc3c(=O)[nH]c(=O)nc-3n(C[C@H](O)[C@H](O)[C@H](O)COP(=O)(O)OP(=O)(O)OC[C@H]3O[C@@H](n4cnc5c(N)ncnc54)[C@H](O)[C@@H]3O)c2cc1C` [FAD], the pKd in test [2] was 7.66.

Source of the values: patent US5424196A, “Enzymatic process for preparing 7-aminocephalosporanic acid and derivatives” (Antibioticos S.p.A., priority 1990, dated 1995).
